Counter-ions that a name gives are not always drawn.
Assays:
Format in all cases: in vivo
[1] = tested on: photo-oxidative induced retinopathy; experiment: Rat photo-oxidative induced retinopathy model: retinal morphology
Description: (§1) Neuroprotective Effects in the Rat Photo-Oxidative Induced Retinopathy Model
(§2) Induction of Photochemical Lesion. Photochemical lesions were induced in dark adapted rats (24 hour) by exposure to (220 fc) blue light (half-amplitude bandpass=435-475 nm) for 6 hours. Animals were allowed to recover for 5 days in darkness prior to electrodiagnostic evaluation of retinal function. Rats were single housed in clear polycarbonate cages during this light exposure.
Assessment of Retinal Morphology. Ocular tissues were obtained from control and drug or vehicle dosed rats and fixed by immersion into a mixture of 2% paraformaldehyde and 2% glutaraldehyde. Fixed eyeballs were dehydrated in an ascending ethanol series, embedded in JB-4 plastic resin, and 1 to 1.5-micron thick sections were analyzed using a quantitative computer image analysis system attached to the microscope. Retinal layer thickness (retinal pigment epithelium, RPE; outer nuclear layer thickness, ONL; inner nuclear layer thickness, INL; and length of photoreceptor inner and outer segments, IS+OS) was measured.
(§3) Subjects and Dosing. Male Sprague Dawley rats were randomly assigned to drug and vehicle experimental groups. Control rats were housed in their home cage under normal cyclic light exposure. All rats were dosed 48, 24 and 0 hours prior to a 6-hour blue-light exposure. Dosing was as follows:
(§4) Five rats were used as controls. Retinal protection was assessed by analyzing the ERG response and measuring changes in retinal morphology.
2.) Buspirone: For DNA quantitation, six rats per treatment group were dosed IP with vehicle or buspirone (0.5 and 1 mg/kg) prior to light exposure. Retinas from seven normal rats were used as controls. To evaluate changes in retinal morphology, rats were dosed (IP) with either vehicle (N=8) or buspirone (1.0 mg/kg [N=9]). Six rats were used as controls. Retinal protection was assessed by quantitating changes in retinal DNA and measuring changes in retinal morphology.

[2] = tested on: photo-oxidative induced retinopathy; experiment: Rat photo-oxidative induced retinopathy model: electroretinogram (ERG)
[3] = tested on: photo-oxidative induced retinopathy; experiment: as above; remark: listed apart in the source
Description: as §1
The retinal protective effect of these 5-HT1A agonists were evaluated in our photo-oxidative induced retinopathy paradigm.
as §2
Electrodiagnostic Evaluation. The electroretinogram (ERG) was recorded from anesthetized rats after a 24-hour dark-adaptation period. Rats were anesthetized by IP injection with Ketamine-HCl (75 mg/Kg) and Xylazine (6 mg/Kg). Flash ERGs recorded from a platinum-iridium wire loop electrode positioned on the cornea were elicited by viewing a ganzfeld. Electrical responses to a series of light flashes increasing in intensity were digitized to analyze temporal characteristics of the waveform and response voltage-log intensity (VlogI) relationship. Changes in the ERG a-wave are associated with photoreceptor and retinal pigment epithelium damage while damage to the inner retina is reflected in changes in the ERG b-wave.
as §3, §4
3.) SR-57746A: Rats were dosed (IP) with vehicle (N=15) or SR-57746A (0.5 mg/kg [N=5] or 1 mg/kg [N=15]). Eleven rats were used as controls. The ERG was analyzed after a 5-day recovery period to assess retinal protection.

[4] = tested on: photo-oxidative induced retinopathy; experiment: Rat photo-oxidative induced retinopathy model: retinal DNA quantitation
Description: as §1, §2
Assessment of DNA Changes. Albino rats were euthanized by CO2 inhalation and individual retinas were frozen in separate tubes. Each retina had been sonicated in 0.8 ml (2.0 M NaCl, 50 mM NaPO4, pH 7.4, 2 mM EDTA) to yield a uniform homogenate, and stored frozen. Aliquots (0.1 ml) of each sample were diluted 10-fold with 2.0 M NaCl, 50 mM NaPO4. pH 7.4, 2 mM EDTA containing 1.1 μg/ml bisbenzimidazole (Hoechst 33258). A standard curve was constructed using calf thymus DNA from 0 to 25 μg/ml in the same buffer. Triplicate 0.2 ml aliquots of each retina sample and standard were pipetted into a 96 well plate for fluorescence measurements in the Cytofluor II. […]
2.) Buspirone: For DNA quantitation, six rats per treatment group were dosed IP with vehicle or buspirone (0.5 and 1 mg/kg) prior to light exposure. […] Retinal protection was assessed by quantitating changes in retinal DNA and measuring changes in retinal morphology.

[5] = tested on: light-induced functional or morphological changes; experiment: Light damage paradigms (comparison compound classes)
[6] = 0.5 mg/kg SC 48, 24 and 0 h before 6-h blue light, 5-day recovery
[7] = 1.0 mg/kg SC 48, 24 and 0 h before 6-h blue light, 5-day recovery

With `CCCN(CCC)C1CCc2cccc(O)c2C1` (stereo not shown) [8-OH-DPAT, 8-hydroxy-2-(di-n-propylamino)tetralin] the “Lesions versus vehicle dosed rats” value ([1]; 0.5 mg/kg SC, 3-week recovery) was “not significantly different than lesions measured in vehicle dosed rats”, the ONL thickness reduction ([1]; 0.5 mg/kg SC, 3-week recovery) was 53% and the “Photoreceptor segment length reduction” value ([1]; 0.5 mg/kg SC, 3-week recovery) was 60%. The RPE thickness reduction ([1]; 0.5 mg/kg SC, 3-week recovery) was 34%, the “ONL thickness compared to vehicle dosed rats” value ([1]; 1.0 mg/kg SC, 3-week recovery) was 2.4 fold and the “Photic lesions versus vehicle dosed rats” value ([1]; 1.0 mg/kg SC, 3-week recovery) was “significantly different from vehicle dosed rats”. For the same compound, the “Photoreceptor segment length compared to vehicle dosed rats” value ([1]; 1.0 mg/kg SC, 3-week recovery) was 2.9 times, the “RPE thickness compared to vehicle dosed rats” value ([1]; 1.0 mg/kg SC, 3-week recovery) was 1.9 times and the “Maximum a- and b-wave response amplitudes versus vehicle dosed rats” value [2, 6] was “not different than vehicle dosed rats”. The “Maximum a- and b-wave response amplitudes, % of control amplitudes” value [2, 6] was “approximately 27%”, the ERG reduction ([2]; 0.5 mg/kg SC, as restated with the morphometry) was “approximately 63%” and the “Maximum a- and b-wave response amplitudes versus vehicle dosed rats” value [2, 7] was “significantly higher than responses measured in vehicle dosed rats”. For the same compound, the “Maximum a-wave response amplitude, % of normal” value [2, 7] was “approximately 53%”, the “Maximum b-wave response amplitude, % of normal” value [2, 7] was ~61% and the “ERG response amplitudes, % of normal” value ([2]; 1.0 mg/kg SC, as restated with the morphometry) was “greater than 50%”.
In the case of `FC(F)(F)c1cccc(C2=CCN(CCc3ccc4ccccc4c3)CC2)c1` [SR-57746A, xaliproden hydrochloride], the “Maximum a- and b-wave responses, % of controls” value ([3]; 0.5 mg/kg IP, 5-day recovery) is reported as 82%, the “Maximum a- and b-wave responses, % of normal” value ([3]; 1 mg/kg IP, 5-day recovery) is reported as 70% and the “Protection of retinal function” value ([3]; 0.5 and 1.0 mg/kg IP, light-exposed rats) is reported as “Significant protection of retinal function”.
In the case of `O=C1CC2(CCCC2)CC(=O)N1CCCCN1CCN(c2ncccn2)CC1` [buspirone], the ONL thickness ([1]; 1 mg/kg IP, 4-week recovery) is reported as 28.3 μ, the “ONL thickness versus normal rats” value ([1]; 1 mg/kg IP, 4-week recovery) is reported as “no significant difference in ONL thickness” and the “Retinal DNA levels versus vehicle” value ([4]; 0.1 mg/kg IP) is reported as “No significant differences”. For the same compound, the “Retinal DNA levels versus vehicle and controls” value ([4]; 1 mg/kg IP) was “significantly higher than measured in vehicle dosed rats, but not significantly different than controls”.
`Fc1ccc(C(c2ccc(F)cc2)N2CCN(C/C=C/c3ccccc3)CC2)cc1` [flunarizine] was tested, and the “Effect in preventing light-induced functional or morphological changes” value [5] was “moderately effective”.
With `COCCOC(=O)C1=C(C)NC(C)=C(C(=O)OC(C)C)C1c1cccc([N+](=O)[O-])c1` (stereo not shown) [nimodipine] the “Effect in preventing light-induced functional or morphological changes” value [5] was “no effect”.
With `Cc1c(C)c2c(c(C)c1O)CC[C@@](C)(CCC[C@H](C)CCC[C@H](C)CCCC(C)C)O2` [α-tocopherol] the “Effect in preventing light-induced functional or morphological changes” value [5] was “ineffective”.
